From publication PMC7272715, “Functional Characterization of Pseudoidium neolycopersici Photolyase Reveals Mechanisms Behind the Efficacy of Nighttime UV on Powdery Mildew Suppression” (Frontiers in Microbiology, 2020)

Target: T1, PnPHR1 (P. neolycopersici photolyase, PN0912) (Erysiphe neolycopersici, UniProt A0A7D3USA5)
T1 construct: GenBank MT277362-MT277364 printed for the three genes together (MT277363 only by order of listing)
T1 sequence (A0A7D3USA5 1-634): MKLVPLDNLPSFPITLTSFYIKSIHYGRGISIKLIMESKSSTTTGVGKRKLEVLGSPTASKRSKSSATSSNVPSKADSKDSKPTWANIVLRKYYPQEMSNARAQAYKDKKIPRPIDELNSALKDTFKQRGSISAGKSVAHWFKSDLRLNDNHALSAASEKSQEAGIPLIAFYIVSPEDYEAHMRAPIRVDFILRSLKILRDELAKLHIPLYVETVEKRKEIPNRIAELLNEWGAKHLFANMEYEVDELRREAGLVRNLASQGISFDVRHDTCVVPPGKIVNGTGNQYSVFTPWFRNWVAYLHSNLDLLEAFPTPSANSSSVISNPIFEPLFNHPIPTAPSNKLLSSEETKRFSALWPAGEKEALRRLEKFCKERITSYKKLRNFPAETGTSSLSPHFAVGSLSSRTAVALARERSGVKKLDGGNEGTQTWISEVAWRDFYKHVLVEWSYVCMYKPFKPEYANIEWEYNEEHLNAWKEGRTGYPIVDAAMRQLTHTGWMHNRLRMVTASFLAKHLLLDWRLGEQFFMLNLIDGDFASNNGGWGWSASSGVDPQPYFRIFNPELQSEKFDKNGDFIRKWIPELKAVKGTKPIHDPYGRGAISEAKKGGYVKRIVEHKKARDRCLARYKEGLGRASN
Test: absorption and fluorescence spectra of purified protein and of chromophore released by heat
Type: binding
Conditions: pH 8.0 storage buffer, 22 °C; intrinsic chromophore co-purified from E. coli; identity inferred from emission (excitation 370 nm); no clear absorption maximum

Compound: Cc1cc2c(cc1C)N(C[C@H](O)[C@H](O)[C@H](O)COP(=O)(O)OP(=O)(O)OC[C@H]1O[C@@H](n3cnc4c(N)ncnc43)[C@H](O)[C@@H]1O)c1[nH]c(=O)[nH]c(=O)c1N2 [FADH^–]
- absorption and fluorescence spectra of purified protein and of chromophore relea: could only reveal the presence of a reduced form of FAD, i.e., FADH^–
